Results reported in patent US20250057864A1, “COMPOSITION FOR IMPROVING EXERCISE PERFORMANCE COMPRISING GYPENOSIDE COMPOUND AS ACTIVE INGREDIENT” (BTC CORPORATION, priority 2022, published 2025).

Assays:
C2C12 cells = assay: Intracellular ROS production in C2C12 cells (DCF-DA); type: cell-based, mice; conditions: oxidative stress by 50 μM TBHP, 1 h pretreatment with test substance
Procedure: C2C12 cells were dispensed into a 96-well plate at 1×10^4 cells/well and stabilized for 24 hours. Subsequently, the cells were cultured for 1 hour after exchanging with the culture medium with the myocyte differentiation medium containing each test substance. After 1 hour, the cells were washed with PBS and cultured further for 3 hours with a culture medium containing 50 μM tert-butyl hydrogen peroxide (TBHP), and the ROS level in the cells was measured using a DCF-DA assay kit (Abcam) according to the manufacturer's method.
In order to investigate the effect of each of the compositions according to Examples 1 to 4 on ROS production in C2C12 cells, ROS production was measured using 2′,7′-dichlorofluorescin diacetate (DCF-DA). DCF-DA was measured using the principle that it is oxidized by ROS in cells and is converted to DCF, which emits fluorescence.

[1] = test system: p-AMPK, p-Sirt1, p-p38, p-Nrf2 in C2C12 cells; assay: Western blot of proteins related with PGC-1α activation in C2C12 cells; type: cell-based, mice; conditions: C2C12, 0.36 μg/mL (Cr 5 μg/mL), control G1 = 1.00
Procedure: C2C12 cells were dispensed into a 6-well plate at 2×10^5 cells/well and stabilized for 24 hours. In order to investigate the effect of each test substance on muscle cell differentiation, each test substance was added to the myocyte differentiation medium. The cells were cultured for 4 days (mRNA analysis) or 7 days (protein analysis) after exchanging the cell culture medium with the myocyte differentiation medium treated with each test substance, as shown in Table 2.
C2C12 cells were dispensed into a 6-well plate at 2×10^5 cells/well and stabilized for 24 hours. The cells were cultured for 7 days after exchanging the culture medium with a myocyte differentiation medium containing the test substance. After the induction of differentiation for 7 days, the cells were homogenized by adding a lysis buffer (20 mmol/L HEPES, pH 7.5, 150 mmol/L NaCl, 1% Triton X-100, 1 mmol/L EDTA, 1 mmol/L EGTA, 100 mmol/L NaF, 10 mmol/L sodium pyrophosphate, 1 mmol/L Na3VO4, 20 μg/mL aprotinin, 10 μg/mL antipain, 10 μg/mL leupeptin, 80 μg/mL benzamidine HCl, 0.2 mmol/L PMSF) and a total cell lysate was obtained through centrifugation. The protein quantity of the total cell lysate was measured using a BCA protein assay kit (Thermo Scientific). The total cell lysate (50 μg) was separated by 10% sodium dodecyl sulfate polyacrylamide gel electrophoresis (SDS-PAGE) and then transferred to a polyvinylidene difluoride membrane (Milipore). The membrane was blocked for 1 hour in 5% skim milk-TBST (20 mmol/L Tris·HCl, pH 7.5, 150 mmol/L NaCl, 0.1% Tween 20) and then incubated for 16 hours at 4° C. or for 1 hour at room temperature after adding antibodies. Thereafter, horseradish peroxidase (HRP)-linked anti-rabbit IgG or HRP-linked anti-mouse IgG was added and the mixture was stirred for 1 hour. The detected protein bands were visualized by enhanced chemiluminescence using a Luminata™ Forte Western HRP substrate (Millipore). The level of protein expression was quantified using the ImageQuant™ LAS 500 imaging system (GE Healthcare Bio-Sciences AB).
The result of western blot analysis conducted using the total cell lysate obtained by treating with the test substance to investigate the effect of the test substance on the changes in proteins associated with PGC-1α activation is shown in Table 6.
Based on the western blot analysis result, the activity of each protein was evaluated from the ratio of activation.

Compound: O=C(O)c1ccc2c3c1cccc3c(=O)n1c3ccccc3nc21 [STO]
- ROS production (fluorescence intensity) (C2C12 cells): 33.97±2.22 fluorescence intensity
- p-AMPK/AMPK ratio [1]: significantly inhibited
- p-Nrf2/Nrf2 ratio [1]: significantly inhibited
- p-p38/p38 ratio [1]: significantly inhibited
